# Values of other authors in patent US12303531B2, “Molecular complex assembly particles comprising bis-R1,R2-dithiocarbamate-metal complex and a ligand, method of preparation and use thereof” (priority 2018, dated 2025).
structure (smiles),measurement,value
CCN(CC)C(=S)[S-].CCN(CC)C(=S)[S-].[Cu+2] [bis(diethyldithiocarbamate)copper(II)],solubility constant in water,in the range of nanograms per litre
